The source of these data is patent US20230301998A1, “METHODS AND COMPOSITIONS FOR INDUCTION OF ANTITUMOR IMMUNITY” (Sanford Burnham Prebys Medical Discovery Institute, priority 2020, published 2023).

The target of experiment [1] is T1, PRMT5 (Homo sapiens, UniProt O14744).
T1 construct: endogenous in cells; host or cells: A375 and WM115 human melanoma cells
Nature of the experiment: IP/immunoblot of IFI16 Arg methylation and SHARPIN interaction in human melanoma cells after PRMT5 inhibition. Type of experiment: cell-based. On the procedure: Immunoblotting was performed using standard protocols. Melanoma cells were lysed by incubation in RIPA buffer [50 mM Tris-HC1, pH7.4, 1% (v/v) NP40, 0.1% (w/v) sodium deoxycholate, 0.1% (w/v) sodium dodecyl sulfate, 150 mM NaCl, 1mM EDTA, and protease and phosphatase inhibitor cocktails (Thermo Fisher Scientific)] and freeze-thawed 3 times. For immunoprecipitation HEK293T cells were lysed in 1% Triton X-100 buffer [50 mM Tris-HC1, pH7.4, 1% (v/v) Triton X-100, 150 mM NaCl, 1 mM EDTA, and protease and phosphatase inhibitor cocktails (Thermo Fisher Scientific)] and freeze-thawed 3 times. Lysates were then incubated overnight with indicated antibodies and then for 4 hr with protein A/G agarose beads (Santa Cruz Biotechnology) under gentle mixing. Proteins were eluted by addition of lysis buffer and boiled in Laemmli buffer before separation on SDS-PAGE and transfer to a PVDF membrane. Membranes were incubated for 1 h at room temperature with blocking solution [TBS (Tris-buffered Saline); 10 mM Tris-HC1, pH8.0, 150 mM NaCl)] containing 0.1% Tween 20 and 5% nonfat milk followed by incubation overnight at 4° C. with appropriate primary antibodies. Membranes were washed with TBS and incubated 1 h at room temperature with secondary antibody [Alexa 680-conjugated goat anti-rabbit, goat anti-mouse, donkey anti-goat (Life Technologies) or IRDye 800-conjugated goat anti-mouse (Rockland Immunochemicals)], or HRP-conjugated anti-mouse or anti-rabbit IgG antibodies. TidyBlot anti-rabbit secondary antibody (Bio-Rad) was used to detect immunoprecipitated proteins (SHARPIN). Blots were treated with HRP-conjugated antibodies and SuperSignal West Pico or Femto chemiluminescent substrate (ThermoFisher scientific). Protein bands were visualized and quantified using an Odyssey Infrared Imaging System (LiCor Biosciences) or ChemiDoc Imaging System (Bio-Rad). […] STING polymer was analyzed using BlueNative(BN) PAGE (3). […] STING dimers and polymers were detected using a STING antibody (D2P2F, Cell Signaling),Immunofluorescence

The target in experiment [2] is T2, PRMT5 (Mus musculus, UniProt Q8CIG8).
T2 construct: endogenous in cells; host or cells: B16F10 murine melanoma cells (ATCC)
Nature of the experiment: IP/immunoblot of IFI204 Arg methylation and SHARPIN interaction in B16 cells after PRMT5 inhibition. Type of experiment: cell-based. On the procedure: Immunoblotting was performed using standard protocols. Melanoma cells were lysed by incubation in RIPA buffer [50 mM Tris-HC1, pH7.4, 1% (v/v) NP40, 0.1% (w/v) sodium deoxycholate, 0.1% (w/v) sodium dodecyl sulfate, 150 mM NaCl, 1mM EDTA, and protease and phosphatase inhibitor cocktails (Thermo Fisher Scientific)] and freeze-thawed 3 times. For immunoprecipitation HEK293T cells were lysed in 1% Triton X-100 buffer [50 mM Tris-HC1, pH7.4, 1% (v/v) Triton X-100, 150 mM NaCl, 1 mM EDTA, and protease and phosphatase inhibitor cocktails (Thermo Fisher Scientific)] and freeze-thawed 3 times. Lysates were then incubated overnight with indicated antibodies and then for 4 hr with protein A/G agarose beads (Santa Cruz Biotechnology) under gentle mixing. Proteins were eluted by addition of lysis buffer and boiled in Laemmli buffer before separation on SDS-PAGE and transfer to a PVDF membrane. […] Protein bands were visualized and quantified using an Odyssey Infrared Imaging System (LiCor Biosciences) or ChemiDoc Imaging System (Bio-Rad). […] STING polymer was analyzed using BlueNative(BN) PAGE (3). […] STING dimers and polymers were detected using a STING antibody (D2P2F, Cell Signaling),Immunofluorescence
On the technique in general: A western blot detects proteins with antibodies after separation by electrophoresis.

Experiment [3] has as its system cGAS/STING pathway. Nature of the experiment: dsDNA (V70mer)-stimulated cGAS/STING signalling in B16 cells (qPCR, western blot). In kind it is cell-based, mouse. (In general: Quantitative PCR measures a nucleic acid by following its amplification.)
In experiment [4] the test system is B16F10 cells. Nature of the experiment: B16F10 syngeneic melanoma tumor model in C57BL/6 mice (tumor volume, response, survival, immune phenotyping). The conditions noted are these: for Non-responder / Responder: number of mice. Type of experiment: in vivo, mouse. On the procedure:
Animal experiments. All animal experiments were conducted with approval of the Institutional Animal Care and Use Committee of Sanford Burnham Prebys Medical Discovery Institute (AUF#18-044). The murine melanoma lines B16F10, YUMM1.7 , and YUMMER1.7 were injected subcutaneously (2.0×10^5 cells of B16F10 or YUMM1.7; 4.0 ×10^5 cells of YUMMER1.7) into the lower right flank of 6-8-week-old male C57BL/6 (B16F10, YUMM1.7, YUMMER1.7) or Nod-Scid-Gamma (NSG) (B16F10, YUMMER1.7) mice. To induce transduced inducible shPRMT5, doxycycline (10 mg/ml, Fisher Bioreagents) was prepared in methylcellulose solution (0.5% hydroxylmethylcellulose, 0.2% Tween80) and administered to mice (0.2 ml, oral gavage, QD)Tumor sizes were monitored using calipers. At indicated time points, tumors were collected, 21 weighed and assessed for immune phenotypes using flow cytometry or immunofluorescence. To assess efficacy of immune checkpoint antibodies, mice were grafted with B16F10 or YUMM1.7 (2.0×10^5 cells, s.c.) cells and treated with 200 μg control IgG [rat IgG2a; BE0089 (BioXcell)], anti-CD152 (CTLA-4) [9H10 (BE0131, BioXcell)] or anti-CD279 (PD-1) [RMP1-14 (BE0146, BioXcell)]. Antibodies were injected (i.p.) 3 - 5 times (every 3 days starting from the indicated date). […] Antibodies were injected (i.p.) every 3 days starting one day prior to tumor cell inoculation. The efficiency of depletion was assessed using flow cytometry of blood samples collected at day 8 after tumor inoculation. To assess percent survival of animals, mice bearing tumors exceeding 2,000 mm^3 were defined as “dead”. Gene set enrichment (GSEA) and Ingenuity Pathway (IPA) analyses
(§1) Statistical analyses were performed using Prism software (version 7.00, GraphPad). For comparison of means of two groups with normal (or approximately normal) distributions, an un-paired t-test was applied. To compare means between >2 groups, one-way analysis of variance (ANOVA) was used with multiple comparison corrections (Dunnett's or Tukey's test). For animal experiments, two-way ANOVA (time and treatment) was used with Tukey's multiple comparison test. For Kaplan-Meier plots to compare overall survival, a log-rank test was used to determine significance of differences between groups. To evaluate response to therapy in a mouse model, Fisher's exact test (version 7.00, GraphPad) was used. For that analysis, a tumor with volume <50% of control tumors was defined as “responding to treatment”. For all analyses, a difference with p<0.05 was considered significant, unless specified.
For immune phenotyping, B16F10 tumors were collected and processed by chopping and mincing using a tube-secured cell strainer (70 p.m poresize, Falcon) to prepare single cells for flow cytometry. YUMMER1.7 cells were processed by chopping, following incubation in Collargenase D solution [0.1% (w/v) Collagenase D, 0.5% (w/v) BSA, 100 μg/ml DNase in PBS] for 1 hr at 30° C. and mincing using cells strainer. […] All antibodies were from Biolegend. Stained cells were fixed in 1% formaldehyde (Sigma) in PBS (pH7.4) for 15 min at 4° C. and analyzed with BD LSRFortessa (BD Biosciences) flow cytometry. For intranuclear staining of FoxP3, cells were fixed and permearbilized using a FoxP3/Transcription factor Fixation/Permearbilization kit (ThermoFisher Scientific). […] Cells were stained with antibody cocktail for surface markers [CD45.2, CD4, and CD8] and followed by staining with intraceullar cytokine antibodies [IFN gamma (APC), TNF alpha(FITC) and IL-2(PE)]. The number of specific immune cells per gram of tumor was calculated based on the percentage of specified immune cells identified in FACS (relative to the total number of tumors cells) per tumor weight. […] Cells were fixed and analyzed as above. To assess effects efficiency of in vivo depletion of CD8 T or NK cells, immune cells were isolated from mouse blood and RBCs were lysed using hypotonic buffer [15 mM NH4C1, 10 mM KHCO3, 0.1mM Na2EDTA] for 1 hr at 4° C.

Experiment [5] has as its system YUMM1.7 cells. Nature of the experiment: YUMM1.7 syngeneic melanoma tumor model in C57BL/6 mice (tumor volume, response). Type of experiment: in vivo, mouse. The conditions noted are these: for Non-responder / Responder: number of mice. On the procedure:
Animal experiments. All animal experiments were conducted with approval of the Institutional Animal Care and Use Committee of Sanford Burnham Prebys Medical Discovery Institute (AUF#18-044). The murine melanoma lines B16F10, YUMM1.7 , and YUMMER1.7 were injected subcutaneously (2.0×10^5 cells of B16F10 or YUMM1.7; 4.0 ×10^5 cells of YUMMER1.7) into the lower right flank of 6-8-week-old male C57BL/6 (B16F10, YUMM1.7, YUMMER1.7) or Nod-Scid-Gamma (NSG) (B16F10, YUMMER1.7) mice. To induce transduced inducible shPRMT5, doxycycline (10 mg/ml, Fisher Bioreagents) was prepared in methylcellulose solution (0.5% hydroxylmethylcellulose, 0.2% Tween80) and administered to mice (0.2 ml, oral gavage, QD)Tumor sizes were monitored using calipers. At indicated time points, tumors were collected, 21 weighed and assessed for immune phenotypes using flow cytometry or immunofluorescence. To assess efficacy of immune checkpoint antibodies, mice were grafted with B16F10 or YUMM1.7 (2.0×10^5 cells, s.c.) cells and treated with 200 μg control IgG [rat IgG2a; BE0089 (BioXcell)], anti-CD152 (CTLA-4) [9H10 (BE0131, BioXcell)] or anti-CD279 (PD-1) [RMP1-14 (BE0146, BioXcell)]. Antibodies were injected (i.p.) 3 - 5 times (every 3 days starting from the indicated date). […] To deplete NK or CD8+ cells, mice were treated with anti-NK1.1 antibody [PK136 (BE0036, BioXcell)] or anti-CD8 antibody [2.43(BE0061, BioXcell), respectively; controls were treated with 200 μtg IgG [rat IgG2b (BE0090, BioXcell)]. Antibodies were injected (i.p.) every 3 days starting one day prior to tumor cell inoculation. The efficiency of depletion was assessed using flow cytometry of blood samples collected at day 8 after tumor inoculation. To assess percent survival of animals, mice bearing tumors exceeding 2,000 mm^3 were defined as “dead”. Gene set enrichment (GSEA) and Ingenuity Pathway (IPA) analyses
as §1

Experiment [6] concerns RIG-I/TLR3. Nature of the experiment: dsRNA poly(I:C)-induced type I interferon response in B16 cells (qPCR). Type of experiment: cell-based, mouse. The conditions noted are these: B16 melanoma cells, poly(I:C) 250 ng/ml 6 hr (FIG. 12J).
The mark [7] stands for this setting: FIG. 17E: B16 in C57BL/6, PRMT5i GSK3326595 40 mg/kg from day 10, anti-PD-1 200 μg/mouse days 11, 14, 17, responder = tumor volume <50% of control.
Where [8] appears, read: FIG. 18C: B16F10 in syngeneic mice, PRMT5i GSK3326595 40 mg/kg QD from day 6, anti-PD1 days 8, 11, 14, 17.
Setting [9] is: FIG. 17F: YUMM1.7 in C57BL/6, PRMT5i from day 7, anti-PD-1 days 8, 11, 14, 17.
Setting [10] is: FIG. 17G: YUMM1.7 in C57BL/6, anti-CD8 200 μg/mouse every three days, PRMT5i from day 8, anti-PD-1 days 9, 12, 15, 18.

T1 sequence (O14744 whole entry): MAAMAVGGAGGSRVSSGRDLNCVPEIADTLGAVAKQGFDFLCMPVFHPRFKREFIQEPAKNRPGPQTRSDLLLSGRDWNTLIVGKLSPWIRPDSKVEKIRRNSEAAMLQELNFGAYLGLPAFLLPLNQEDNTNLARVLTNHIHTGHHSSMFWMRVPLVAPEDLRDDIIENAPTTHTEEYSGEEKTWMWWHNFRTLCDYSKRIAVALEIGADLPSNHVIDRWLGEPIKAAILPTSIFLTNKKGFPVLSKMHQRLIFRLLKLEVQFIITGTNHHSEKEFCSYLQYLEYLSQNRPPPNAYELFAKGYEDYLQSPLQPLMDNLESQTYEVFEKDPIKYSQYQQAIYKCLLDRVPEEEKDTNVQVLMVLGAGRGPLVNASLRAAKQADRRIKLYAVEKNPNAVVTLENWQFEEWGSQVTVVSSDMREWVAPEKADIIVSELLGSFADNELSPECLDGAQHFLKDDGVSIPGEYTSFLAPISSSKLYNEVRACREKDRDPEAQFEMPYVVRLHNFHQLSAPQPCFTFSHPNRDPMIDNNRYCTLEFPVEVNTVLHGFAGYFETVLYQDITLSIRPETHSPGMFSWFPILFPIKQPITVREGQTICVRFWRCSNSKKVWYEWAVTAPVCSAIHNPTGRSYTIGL
T1 sequence (Q9BQA1 whole entry partner): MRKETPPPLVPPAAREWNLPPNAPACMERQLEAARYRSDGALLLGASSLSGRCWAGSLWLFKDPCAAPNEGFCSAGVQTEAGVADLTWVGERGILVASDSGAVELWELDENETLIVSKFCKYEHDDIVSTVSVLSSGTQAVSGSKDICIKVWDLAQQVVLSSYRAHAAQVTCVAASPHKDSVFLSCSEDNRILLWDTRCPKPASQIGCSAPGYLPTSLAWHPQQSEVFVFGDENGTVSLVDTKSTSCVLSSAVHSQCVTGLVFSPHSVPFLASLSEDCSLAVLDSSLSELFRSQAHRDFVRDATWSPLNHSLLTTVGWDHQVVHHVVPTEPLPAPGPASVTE
T2 sequence (Q8CIG8 whole entry): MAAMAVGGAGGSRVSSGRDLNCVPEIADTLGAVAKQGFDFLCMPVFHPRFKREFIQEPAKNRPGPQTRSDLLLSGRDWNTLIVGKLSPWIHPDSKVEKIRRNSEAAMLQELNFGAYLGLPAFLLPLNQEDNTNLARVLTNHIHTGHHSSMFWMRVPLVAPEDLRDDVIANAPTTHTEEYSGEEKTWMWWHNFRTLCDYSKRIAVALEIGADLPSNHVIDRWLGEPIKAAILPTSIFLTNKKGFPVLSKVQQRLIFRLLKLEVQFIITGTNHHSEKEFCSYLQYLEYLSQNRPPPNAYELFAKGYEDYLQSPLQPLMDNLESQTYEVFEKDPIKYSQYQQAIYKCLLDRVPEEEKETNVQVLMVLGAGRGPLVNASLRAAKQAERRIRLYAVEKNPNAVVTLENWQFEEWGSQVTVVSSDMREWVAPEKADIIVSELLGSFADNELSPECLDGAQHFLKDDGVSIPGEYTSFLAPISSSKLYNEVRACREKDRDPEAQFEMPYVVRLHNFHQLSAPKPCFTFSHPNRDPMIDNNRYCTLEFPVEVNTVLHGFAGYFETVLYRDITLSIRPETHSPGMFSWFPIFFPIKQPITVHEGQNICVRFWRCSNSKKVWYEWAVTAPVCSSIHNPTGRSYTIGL
T2 sequence (Q99J09 whole entry partner): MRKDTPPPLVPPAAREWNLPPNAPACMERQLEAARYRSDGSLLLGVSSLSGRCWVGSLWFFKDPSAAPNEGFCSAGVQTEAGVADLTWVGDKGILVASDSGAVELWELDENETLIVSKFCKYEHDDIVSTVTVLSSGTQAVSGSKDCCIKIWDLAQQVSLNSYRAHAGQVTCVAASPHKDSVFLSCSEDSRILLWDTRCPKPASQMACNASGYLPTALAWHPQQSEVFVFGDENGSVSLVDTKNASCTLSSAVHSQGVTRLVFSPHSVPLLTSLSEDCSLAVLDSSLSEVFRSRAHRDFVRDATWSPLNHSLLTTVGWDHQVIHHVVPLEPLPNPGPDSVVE

With `O=C(NC[C@H](O)CN1CCc2ccccc2C1)c1cc(NC2COC2)ncn1` [EPZ015666], the “decrease in IFI16 methylation” value in experiment [1] (A375 melanoma cells, EPZ015666 10 μM (FIG. 8E)) was found to be 50%; in experiment [1] (WM115 cells (MTAP-deleted), EPZ015666 10 μM (FIG. 10D)), 15%. The “degree of interaction between IFI16 and SHARPIN” value in experiment [1] (A375 melanoma cells, EPZ015666 10 μM (FIG. 10C)) is reported as “enhanced”. Besides, in experiment [2] (EPZ015666 10 μM (FIG. 8D)), the “IFI204 interaction with SHARPIN” value is “stronger interaction with SHARPIN”. For the same compound, the “reduced IFI204 methylation” value in experiment [2] (EPZ015666 10 μM (FIG. 8F)) turned out to be 57%. For the same compound, the “expression of Ifnb1, Cc15 and Cxcl10” value in experiment [3] (B16 cells treated 24 hr, then V70mer dsDNA 500 ng/ml 6 h, qPCR (FIG. 11B)) is recorded as “increased”. The TBK1-IRF3 signaling result in experiment [3] (B16 melanoma, V70mer 1.5 μg/ml, western blot (FIG. 11G)) is reported as “activated TBK1-IRF3 signaling”.
Take `CC(=O)N1CCC(Nc2cc(C(=O)NC[C@H](O)CN3CCc4ccccc4C3)ncn2)CC1` [GSK3326595]: the “immune cell infiltration or activation in tumors” value in experiment [4] (B16F10, PRMT5i monotherapy 40 mg/kg QD from day 8, tumors day 15, flow cytometry (FIGS. 18E-G)) is “notable changes were not observed”. Also, the “response rate across experiments” value in experiment [4] (B16 and YUMM1.7 models, FIGS. 17E-F, 18C-D, table 5) is on record as 14.3˜66.7%. Also, the Non-responder in experiment [4] (setting [7]) came out at 6; in experiment [4] (setting [8]), 2; in experiment [5] (setting [9]), 5; in experiment [5] (setting [10]), 6. Moreover, the Responder in experiment [4] (setting [7]) came to 1; in experiment [4] (setting [8]), 4; in experiment [5] (setting [9]) it was 2; in experiment [5] (setting [10]), 1. For the same compound, the “Response rate (%)” value is given as 14.3% in experiment [4] (FIG. 17E: B16 in C57BL/6, PRMT5i from day 10, anti-PD-1 days 11, 14, 17, percent of responders in group); 66.7% in experiment [4] (FIG. 18C: B16F10, PRMT5i 40 mg/kg QD from day 6, anti-PD1 days 8, 11, 14, 17); 28.6% in experiment [5] (setting [9]); 14.3% in experiment [5] (FIG. 17G: YUMM1.7 in C57BL/6, anti-CD8 depletion, PRMT5i from day 8, anti-PD-1 days 9, 12, 15, 18).
For the compound poly(I:C), the “Ifnb1 and chemokine expression” value in experiment [6] is given as “induced”.
